Molecular target: FXR (Homo sapiens (Human), UniProt Q96RI1)
Experiment: FXR EC50 (FXR agonist activity reported with each example)
Type: cell-based

Chain of FXR (Q96RI1 262-486): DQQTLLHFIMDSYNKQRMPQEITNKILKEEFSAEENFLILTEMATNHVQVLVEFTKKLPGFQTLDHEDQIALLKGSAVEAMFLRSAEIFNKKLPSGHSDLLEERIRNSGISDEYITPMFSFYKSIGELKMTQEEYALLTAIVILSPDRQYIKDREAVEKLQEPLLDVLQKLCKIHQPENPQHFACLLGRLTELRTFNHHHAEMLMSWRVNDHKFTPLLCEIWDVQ

SMILES | EC50 [nM]
O=C(O)c1ccc2[nH]c(C34CCC(OCc5c(-c6c(Cl)cccc6Cl)noc5C5CC5)(CC3)CC4)nc2c1 [Example 17, 2-(4-((5-cyclopropyl-3-(2,6-dichlorophenyl)isoxazol-4-yl)methoxy)bicyclo[2.2.2]octan-1-yl)-1H-benzo[d]imidazole-5-carboxylic acid] | 2700
CC(C)Oc1cc(-c2noc(C34CCC(OCc5c(-c6c(Cl)cncc6Cl)noc5C5CC5)(CC3)CC4)n2)cc(C(=O)O)n1 [Example 258, 4-(5-(4-((5-cyclopropyl-3-(3,5-dichloropyridin-4-yl)isoxazol-4-yl)methoxy)bicyclo[2.2.2]octan-1-yl)-1,2,4-oxadiazol-3-yl)-6-isopropoxypicolinic acid] | 8
N#Cc1cc(C(F)(F)F)cc(C23CCC(COCc4c(-c5c(Cl)cncc5Cl)noc4C4CC4)(CC2)CO3)c1 [Example 488, 3-(4-(((5-cyclopropyl-3-(3,5-dichloropyridin-4-yl)isoxazol-4-yl)methoxy)methyl)-2-oxabicyclo[2.2.2]octan-1-yl)-5-(trifluoromethyl)benzonitrile] | 2400
O=C(O)c1cccc(-c2noc(C34CCC(OCc5c(-c6c(Cl)cncc6Cl)noc5C5CC5)(CC3)CC4)n2)n1 [Example 247, 6-(5-(4-((5-cyclopropyl-3-(3,5-dichloropyridin-4-yl)isoxazol-4-yl)methoxy)bicyclo[2.2.2]octan-1-yl)-1,2,4-oxadiazol-3-yl)picolinic acid] | 580
O=C(O)c1ccc(-c2nc(C34CCC(OCc5c(-c6ccccc6OC(F)(F)F)noc5C5CC5)(CC3)CC4)no2)cc1 [Example 57] | 650
CCOc1cc(OCC23CCC(OCc4c(-c5ccccc5C(F)(F)F)noc4C4CC4)(CC2)CC3)cnc1C(=O)O [Example 297] | 543
O=C(O)c1csc(C23CCC(/C=C/c4c(-c5c(Cl)cncc5Cl)noc4C4CC4)(CC2)CC3)n1 [Example 510, (E)-2-(4-(2-(5-cyclopropyl-3-(3,5-dichloropyridin-4-yl)isoxazol-4-yl)vinyl)bicyclo[2.2.2]octan-1-yl)thiazole-4-carboxylic acid] | 410
O=C(O)c1cc(F)c2nc(C34CCC(OCc5c(-c6ccccc6OC(F)(F)F)noc5C5CC5)(CC3)CC4)sc2c1 [Example 15, 2-(4-((5-cyclopropyl-3-(2-(trifluoromethoxy)phenyl)isoxazol-4-yl)methoxy)bicyclo[2.2.2]octan-1-yl)-4-fluorobenzo[d]thiazole-6-carboxylic acid] | 210
O=C(O)c1ccc(OCC2CC2)c2nc(C34CCC(OCc5c(-c6c(Cl)cncc6Cl)noc5C5CC5)(CC3)CC4)ccc12 [Example 392] | 24
Cn1cc(C#CC23CCC(OCc4c(-c5c(Cl)cncc5Cl)noc4C4CC4)(CC2)CC3)c2ccc(C(=O)O)cc21 [Example 399] | 83
O=C(O)c1cccc(-c2noc(C34CCC(OCc5c(-c6c(Cl)cncc6Cl)noc5C5CC5)(CC3)CO4)n2)c1 [Example 206] | 490
O=C(O)c1cc(-c2noc(C34CCC(OCc5c(-c6c(Cl)cncc6Cl)noc5C5CC5)(CC3)CC4)n2)ccc1C(F)(F)F [Example 254, 5-(5-(4-((5-cyclopropyl-3-(3,5-dichloropyridin-4-yl)isoxazol-4-yl)methoxy)bicyclo[2.2.2]octan-1-yl)-1,2,4-oxadiazol-3-yl)-2-(trifluoromethyl)benzoic acid] | 2000
O=C(O)c1ccc(-c2noc(C34CCC(OCc5c(-c6ccccc6OC(F)(F)F)noc5C5CC5)(CC3)CO4)n2)cc1 [Example 212] | 1000
O=C(O)c1cc(-c2noc(C34CCC(OCc5c(-c6c(Cl)cncc6Cl)noc5C5CC5)(CC3)CC4)n2)cc(OC2CCC2)n1 [Example 261, 6-cyclobutoxy-4-(5-(4-((5-cyclopropyl-3-(3,5-dichloropyridin-4-yl)isoxazol-4-yl)methoxy)bicyclo[2.2.2]octan-1-yl)-1,2,4-oxadiazol-3-yl)picolinic acid] | 36
CS(=O)(=O)NC(=O)c1cccc(C23CCC(COCc4c(-c5c(Cl)cccc5Cl)noc4C4CC4)(CC2)CO3)c1 [Example 215] | 1600
O=C(O)CC1CCN(C(=O)C23CCC(OCc4c(-c5c(Cl)cccc5Cl)noc4C4CC4)(CC2)CC3)CC1 [Example 145, 2-(1-(4-((5-cyclopropyl-3-(2,6-dichlorophenyl)isoxazol-4-yl)methoxy)bicyclo[2.2.2]octane-1-carbonyl)piperidin-4-yl)acetic acid] | 3800
CN(C)c1cc(-c2noc(C34CCC(OCc5c(-c6c(Cl)cncc6Cl)noc5C5CC5)(CC3)CC4)n2)cc(C(=O)O)n1 [Example 262, 4-(5-(4-((5-cyclopropyl-3-(3,5-dichloropyridin-4-yl)isoxazol-4-yl)methoxy)bicyclo[2.2.2]octan-1-yl)-1,2,4-oxadiazol-3-yl)-6-(dimethylamino)picolinic acid] | 53
O=C(O)c1c(F)ccc(-c2noc(C34CCC(OCc5c(-c6c(Cl)cncc6Cl)noc5C5CC5)(CC3)CC4)n2)c1F [Example 248, 3-(5-(4-((5-cyclopropyl-3-(3,5-dichloropyridin-4-yl)isoxazol-4-yl)methoxy)bicyclo[2.2.2]octan-1-yl)-1,2,4-oxadiazol-3-yl)-2,6-difluorobenzoic acid] | 1100
O=C(O)c1cc(F)cc(OCC23CCC(OCc4c(-c5c(Cl)cccc5Cl)noc4C4CC4)(CC2)CC3)c1 [Example 94, 3-((4-((5-cyclopropyl-3-(2,6-dichlorophenyl)isoxazol-4-yl)methoxy)bicyclo[2.2.2]octan-1-yl)methoxy)-5-fluorobenzoic acid] | 18
O=C(O)c1ccc(-c2noc(C34CCC(OCc5c(-c6c(Cl)cccc6Cl)noc5C5CC5)(CC3)CC4)n2)nc1 [Example 9, 6-(5-(4-((5-cyclopropyl-3-(2,6-dichlorophenyl)isoxazol-4-yl)methoxy)bicyclo[2.2.2]octan-1-yl)-1,2,4-oxadiazol-3-yl)nicotinic acid] | 950
O=C(O)c1cc(C(F)(F)F)cc(OCC23CCC(OCc4c(-c5c(Cl)cncc5Cl)noc4C4CC4)(CC2)CC3)n1 [Example 280, 6-((4-((5-cyclopropyl-3-(3,5-dichloropyridin-4-yl)isoxazol-4-yl)methoxy)bicyclo[2.2.2]octan-1-yl)methoxy)-4-(trifluoromethyl)picolinic acid] | 23
O=C(O)c1ccc(OC2CCC2)c2nc(OCC34CCC(OCc5c(-c6c(Cl)cncc6Cl)noc5C5CC5)(CC3)CC4)ccc12 [Example 349, 8-cyclobutoxy-2-((4-((5-cyclopropyl-3-(3,5-dichloropyridin-4-yl)isoxazol-4-yl)methoxy)bicyclo[2.2.2]octan-1-yl)methoxy)quinoline-5-carboxylic acid] | 130
CS(=O)(=O)NC(=O)c1cc(-c2noc(C34CCC(/C=C/c5c(-c6c(Cl)cncc6Cl)noc5C5CC5)(CC3)CC4)n2)cc(C(F)(F)F)c1 [Example 440, (E)-3-(5-(4-(2-(5-cyclopropyl-3-(3,5-dichloropyridin-4-yl)isoxazol-4-yl)vinyl)bicyclo[2.2.2]octan-1-yl)-1,2,4-oxadiazol-3-yl)-N-(methylsulfonyl)-5-(trifluoromethyl)benzamide] | 400
O=C(O)c1cccc(-c2noc(C34CCC(COCc5c(-c6ccccc6OC(F)(F)F)noc5C5CC5)(CC3)CO4)n2)c1 [Example 213] | 1200

— US10730863B2, “Bridged bicyclic compounds as farnesoid X receptor modulators” (BRISTOL-MYERS SQUIBB COMPANY, priority 2017, dated 2020)
